Measured values reported in patent US10537521B2 (priority 2016, dated 2020).
Where two headings read alike, the source gives them in different places.

What was measured:
[1] = test system: patients undergoing abdominal surgery; conditions: initial tramadol 100 mg or morphine 5 mg i.v., repeat tramadol 50 mg or morphine 5 mg on demand; cited from earlier work
[2] = test system: postoperative pain; conditions: after 4 to 6 hours; IV or IM intermittent injection, dose titrated to pain response; cited from earlier work
[3] = test system: experienced opioid abusers; conditions: tramadol 100 and 200 mg IV, cited from earlier work
[4] = tramadol single […] [100 mg] p.o., humans N=12 male; cited from earlier work
[5] = after oral administration of tramadol (single dose of 100 mg); cited from earlier work
[6] = Example 1: multiple-dose randomized 3-way crossover PK study of two IV tramadol regimens vs 100 mg oral q6h; conditions: mean; for AUCtau n: last dosing interval
Procedure: A fitted curve was obtained because the second oral peak was not measured in the study. For the modeling portion of the analysis, a validated Phoenix® WinNonlin® program version 6.4 (Certara) was used for PK analysis, simulation, graphics, tables and statistical calculations. […] For purposes of nonlinear regression, the data were weighted as 1/observed. Predicted concentration-time data were calculated based on the individual fitted PK parameters.

[7] = Example 4: multiple dose steady-state dose proportionality study, tramadol injection 50/100 mg IV and Ultram tablet 50/100 mg oral q6h; assay type: in vivo, human; conditions: steady-state, healthy volunteers
Procedure: The study was an open-label, single-period, randomized, parallel treatment design. Subjects received study drug every 6 hours beginning on the morning of Day 1 and ending on the morning of Day 3. The first dose on Day 1 and the last dose on Day 3 were administered after a minimum 10 hour fast.

[8] = 50 mg IV regimen (h 0, 2, 4, then q4h to h 44), plasma
[9] = 75 mg IV regimen (h 0, 3, 6, then q6h to h 42)
[10] = 75 mg IV regimen (h 0, 3, 6, then q6h to h 42), plasma
[11] = 100 mg oral q6h to h 42, plasma
[12] = Tramadol dosed as 50 mg IV every 6 hours
[13] = Tramadol dosed as 50 mg Oral (Ultram tablet) every 6 hours
[14] = Tramadol dosed as 100 mg IV every 6 hours
[15] = Tramadol dosed as 100 gm Oral (Ultram tablet) every 6 hours

CN1CC[C@]23c4c5ccc(O)c4O[C@H]2[C@@H](O)C=C[C@H]3[C@H]1C5 [morphine]
responder rate (no or slight pain) within the first 90 minutes of treatment [1]: 81.2%
reduction of pain intensity [2]: 69.8%
ratings of “liking” ([3]; morphine 10 and 20 mg IV, over 5 minutes, 10 experienced opioid abusers): significantly increased ratings
ratings of “feel drug effect” compared to placebo ([3]; morphine 10 and 20 mg IV, over 5 minutes): significantly increased
ratings on the ARCI-MBG scale ([3]; morphine 20 mg IV): increased ratings

(+)-O-desmethyltramadol [(+)-M1]
AUC [4]: 1258 ± 410 ng·h/mL
Cmax [4]: 147 ± 39 ng/mL
Tmax [4]: 1.6 ± 0.5 h
t1/2 [4]: 6.0 ± 1.0 h

CN(C)C[C@H]1CCCC[C@]1(O)c1cccc(O)c1 [O-desmethyltramadol]
half-life [5]: approximately 6.7 hours
Cmax(0-2) ([6]; 50 mg IV regimen (h 0, 2, 4, then q4h to h 44), first dose, plasma): 17.1 ng/mL
RAC(trough) ([6]; 50 mg IV regimen (h 0, 2, 4, then q4h to h 44)): 5.2872
AUC0-24 [6, 8]: 1425 ng·h/mL
AUC0-48 [6, 8]: 3427 ng·h/mL
AUC24-48 [6, 8]: 2002 ng·h/mL
C2 [6, 8]: 16.9 ng/mL
C48 (T48) [6, 8]: 81.7 ng/mL
C1 h [6, 8]: 11.8 ng/mL
Cmax(2-4) [6, 8]: 37.8 ng/mL
Css [6, 8]: 88.9 ng/mL
Tmax [6, 8]: 44.95 h
Tmax(0-2) [6, 8]: 1.85 h
Tmax(2-4) [6, 8]: 3.95 h
Tmax(44-48) [6, 8]: 45.31 h
Cmax(0-3) ([6]; 75 mg IV regimen (h 0, 3, 6, then q6h to h 42), first dose, plasma): 29.7 ng/mL
AUCtau n [6, 9]: 519.8 ng·h/mL
RAC(trough) [6, 9]: 2.7237
AUC0-24 [6, 10]: 1608 ng·h/mL
AUC0-48 [6, 10]: 3504 ng·h/mL
AUC24-48 [6, 10]: 1896 ng·h/mL
C3 [6, 10]: 29.5 ng/mL
C48 (T48) [6, 10]: 75.9 ng/mL
C1 h [6, 10]: 19.9 ng/mL
Cmax(3-6) [6, 10]: 59.4 ng/mL
Css [6, 10]: 86.6 ng/mL
Tmax [6, 10]: 32.99 h
Tmax(0-3) [6, 10]: 2.71 h
Tmax(3-6) [6, 10]: 5.81 h
Tmax(42-48) [6, 10]: 43.10 h
Cmax(0-6) ([6]; 100 mg oral q6h to h 42, first dose, plasma): 60.3 ng/mL
AUCtau n ([6]; 100 mg oral q6h to h 42): 768.4 ng·h/mL
RAC(trough) ([6]; 100 mg oral q6h to h 42): 2.7839
AUC0-24 [6, 11]: 1655 ng·h/mL
AUC0-48 [6, 11]: 4349 ng·h/mL
AUC24-48 [6, 11]: 2693 ng·h/mL
C6 [6, 11]: 42.3 ng/mL
C48 (T48) [6, 11]: 111 ng/mL
C1 h [6, 11]: 41.4 ng/mL
Cmax [6, 11]: 146 ng/mL
Css [6, 11]: 128 ng/mL
Tmax [6, 11]: 43.97 h
Tmax(0-6) [6, 11]: 2.04 h
Tmax(42-48) [6, 11]: 43.97 h
Cmax(42-48) ([6]; 100 mg oral q6h to h 42, steady-state, plasma): 146 ng/mL

CN(C)C[C@H]1CCCC[C@]1(O)c1cccc(O)c1 [tramadol M1 metabolite]
Cmin, tramadol M1 metabolite, Mean ± SD [7, 12]: 55.9 ± 7.4 ng/mL
Trough Peak, tramadol M1 metabolite, Mean ± SD [7, 12]: 0.715 ± 0.044 ratio
Cmin, tramadol M1 metabolite, Mean ± SD [7, 13]: 65.9 ± 15.8 ng/mL
Trough Peak, tramadol M1 metabolite, Mean ± SD [7, 13]: 0.670 ± 0.061 ratio
Cmin, tramadol M1 metabolite, Mean ± SD [7, 14]: 130 ± 37 ng/mL
Trough Peak, tramadol M1 metabolite, Mean ± SD [7, 14]: 0.795 ± 0.040 ratio
Cmin, tramadol M1 metabolite, Mean ± SD [7, 15]: 93.6 ± 34.6 ng/mL
Trough Peak, tramadol M1 metabolite, Mean ± SD [7, 15]: 0.707 ± 0.080 ratio
